# Assay results from patent publication US10301277B2, “Substituted ureas and methods of treating mental illness using the same” (ZHEJIANG JINGXIN PHARMACEUTICAL CO., LTD., priority 2016, dated 2019).
# Read-outs that look alike come from different tables or passages of the source.
# Tests used:
# [1] = system: MK-801-induced schizophrenia model; assay: MK-801-induced schizophrenia model, open field running behavior; format: in vivo, Sprague-Dawley rats; conditions: for inhibition of high spontaneous activity of MK-801-induced rats: dose of 0.3 mg/kg, compared with MK-801 model control; for Total Distance within 61-150 minutes / Improvement Rate: single oral administration 0.3 mg/kg; for Total Distance within 61-150 minutes: MK-801 0.3 mg/kg i.p., x ± SD; for Improvement Rate: versus MK-801 model control
# Method: (I) Modeling of MK-801-Induced Schizophrenia in Mice
# Each rat was placed in a soundproof box for 30 minutes on the day before the test to adapt. On the next day, each rat was administrated with the respective test compounds, and after 30 minutes, administrated intraperitoneally with a 0.3 mg/kg MK-801 solution at 5.0 mL/kg body weight of the rat to build a model of MK-801-induced schizophrenia in mice.
# (II) Observation of Open Field Running Behavior
# Mice were administered with MK-801 and then immediately placed in the soundproof box. The total distances of motion of mice within 2.5 hours were observed and recorded. Improvement rate=(total distance of model control−total distance of administration)/(total distance of model control)×100%. (III) Statistical Method
# All the data was expressed with x±SD and processed by SPSS17.0 software statistical package. T-test and one-way analysis of variance were performed to compare the mean of two samples, with P<0.05 as significant difference.
# [2] = Acute toxicity assay, single oral administration; conditions: ICR, mouse, in vivo
# Method: Acute Toxicity Assay of the Cyclohexane Derivatives of the Present Invention
# ICR mice orally administered with the compounds of the present invention were evaluated and their toxicity symptoms after oral administration were observed, as well as the mortality, which was calculated by Bliss method, thus the acute toxicities were compared.
# • i. Preparation of solvent: Tween-80 of an appropriate amount was diluted with deionized water to a concentration of […] (g/v) Tween-80. • ii. […]. Administration: the test compound and solvent medium control groups (0.5% Tween-80) were administered orally.
# Observations include but are not limited to: general condition, behavior, gait, eyes, mouth, nose, gastrointestinal tract, skin and hair and urogenital tract.
# Dopamine D2 receptor = molecular target: T1, Dopamine D2 receptor (Homo sapiens, UniProt P14416); assay: Dopamine D2 receptor binding assay; conditions: [3H] Spiperone, HEK293 cells expressing D2 receptor
# T1 construct: expressed in transfected cells
# T1 sequence (P14416 whole entry, species assumed): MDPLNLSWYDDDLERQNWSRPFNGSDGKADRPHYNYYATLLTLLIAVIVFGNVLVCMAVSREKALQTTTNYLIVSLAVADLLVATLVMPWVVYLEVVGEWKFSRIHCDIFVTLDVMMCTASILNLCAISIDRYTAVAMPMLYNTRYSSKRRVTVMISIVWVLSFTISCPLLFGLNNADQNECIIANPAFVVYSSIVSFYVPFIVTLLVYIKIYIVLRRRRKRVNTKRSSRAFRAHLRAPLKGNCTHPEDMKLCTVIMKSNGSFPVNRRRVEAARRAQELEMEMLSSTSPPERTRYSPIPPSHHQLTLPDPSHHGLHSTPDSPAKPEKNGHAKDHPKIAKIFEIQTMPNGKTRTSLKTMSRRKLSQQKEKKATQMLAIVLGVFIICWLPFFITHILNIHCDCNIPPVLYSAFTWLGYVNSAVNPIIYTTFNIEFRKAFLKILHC
# Method: (§1) This test was carried out according to the dopamine D2/D3 receptor binding assay and the 5-HT1A receptor binding assay described in Jiangsu Hengyi Pharmaceutical Co., Ltd.'s Patent CN 103130737 A. IC50 values were calculated from concentration-dependent reactions using a non-linear analysis program. Ki values were calculated from IC50 values by using Cheng-Prussoff equation, i.e. Ki=IC50/(1+[L]/KD), wherein Ki is the affinity of the drug to the receptor; […]; and KD is the affinity of radioligand to the receptor.
# (I) Dopamine D2 Receptor Binding Assay
# • a. Transfection of D2 Receptor Cells: by using calcium phosphate method, HEK293 cells were transfected with a plasmid vector containing the D2 receptor protein gene. The transfected cells were cultured in a culture solution containing G418, followed by a selection of monoclonal cell and radioligand binding assay, finally obtaining a stable cell line with stable expression of D2 receptor protein. • b. Materials for receptor binding assay: isotope ligand [^3H] Spiperone (113.0 Ci/mmol); available from Sigma-Aldrich Company; (+) spiperone, available from RBI company; GF/B glass fiber filter paper, available from Whatman Company; Tris imported and packaged; PPO, POPOP, available from Shanghai Reagent Chemical Company; lipid-soluble scintillation solution; and Beckman LS-6500 Multi-function Liquid Scintillation Counter. ii. Test Method • a. Treatment of cells: HEK-293 cells were infected with various recombinant viruses of the above genes, respectively, and the receptor proteins were highly expressed on the membranes after 48-72 hours. The cells were centrifuged at 1000 rpm for 5 minutes. The culture solution was discarded, and the cells were collected and stored in a refrigerator at −20° C. for standby. The cells were resuspended with Tris-HCl buffer (pH=7.5) when tested. • b. Competitive binding assay for receptor
# The compound to be tested and the radio ligand, both 20 μL, and 160 μL of receptor proteins were added to the reaction test tubes to achieve a final concentration of 10 μmol/L for each of the compound to be tested and positive control, incubated in a water bath of 30° C. for 50 minutes and immediately transferred to an ice bath to terminate the reaction; placed on a Millipore cell sample collector, filtered by suction rapidly through a […] glass fiber filter, and eluted with 3 mL of eluent (50 mM Tris-HCl, pH7.5) for three times and dried with microwave for 5-6 minutes. The filter paper was transferred into a 0.5 mL centrifuge tube to which 500 μL of lipid-soluble scintillation solution was added, and settled away from light for more than 30 minutes. The radioactive intensity was determined by counting. The concentration of the compound was 10 μmol/L, and inhibition rate (%) of each compound to the binding of isotope ligands was calculated according to the following equation: Inhibition rate (I%)=(total binding tube cpm−compound cpm)/(total binding tube cpm—non-specific binding tube cpm)×100%. (II) Dopamine D3 Receptor Binding Assay
# Dopamine D3 receptor = Dopamine D3 receptor (Homo sapiens, UniProt P35462); assay: Dopamine D3 receptor binding assay
# Sequence of Dopamine D3 receptor (P35462 whole entry, species assumed): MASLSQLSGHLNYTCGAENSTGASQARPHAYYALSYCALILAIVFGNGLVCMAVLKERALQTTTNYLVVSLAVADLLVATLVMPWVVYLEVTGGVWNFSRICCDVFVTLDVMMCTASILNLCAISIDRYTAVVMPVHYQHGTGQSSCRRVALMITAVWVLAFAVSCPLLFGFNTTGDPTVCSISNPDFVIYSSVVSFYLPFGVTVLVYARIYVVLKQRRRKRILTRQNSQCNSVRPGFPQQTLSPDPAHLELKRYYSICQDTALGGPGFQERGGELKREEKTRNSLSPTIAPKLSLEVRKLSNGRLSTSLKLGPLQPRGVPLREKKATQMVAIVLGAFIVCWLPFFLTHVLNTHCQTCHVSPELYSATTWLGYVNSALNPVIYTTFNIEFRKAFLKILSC
# Method: as §1
# The concentration of the compound was 10 μmol/L, and the assay was performed according to the method described in Journal of Pharmacology and Experimental Therapeutics 2010, 333 (1): 328.
# 5-HT1A receptor = molecular target: T2, 5-HT1A receptor (Homo sapiens, UniProt P08908); assay: 5-HT1A receptor binding assay; conditions: [3H] 8-OH-DPAT, HEK-293 cells expressing 5-HT1A receptor
# T2 construct: expressed in transfected cells
# T2 sequence (P08908 1-422): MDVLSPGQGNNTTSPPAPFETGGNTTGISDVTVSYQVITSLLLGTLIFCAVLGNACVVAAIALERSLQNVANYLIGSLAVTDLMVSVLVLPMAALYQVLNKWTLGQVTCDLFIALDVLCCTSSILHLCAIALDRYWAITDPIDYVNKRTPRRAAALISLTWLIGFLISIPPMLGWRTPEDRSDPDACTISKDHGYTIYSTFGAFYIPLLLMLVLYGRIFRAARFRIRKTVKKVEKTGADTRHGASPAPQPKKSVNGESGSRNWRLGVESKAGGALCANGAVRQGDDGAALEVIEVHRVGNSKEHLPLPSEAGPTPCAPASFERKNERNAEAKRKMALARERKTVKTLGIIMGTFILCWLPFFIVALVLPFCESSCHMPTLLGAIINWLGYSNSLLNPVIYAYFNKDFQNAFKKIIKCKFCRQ
# Method: as §1
# (III) 5-HT1A Receptor Binding Assay
# 5-HT1A receptor isotope ligand [^3H] 8-OH-DPAT (available from PE Company); (+)5-hydroxytrptamine (available from Sigma Company); GF/B glass fiber filter paper (available from Whatman Company); lipid-soluble scintillation solution: PPO, POPOP (available from Shanghai Chemical Reagent Company); toluene (from Sinopharm Chemical Reagent Co., Ltd.); Tris imported and packaged.
# Treatment of cells: HEK-293 cells which stably express the 5-HT1A receptor by gene recombination were cultured in DMEM+10% serum solution for 3-5 days and then collected with PBS. The cells were centrifuged at 3000 rpm and […] for 10 minutes. Afterwards, the supernate was discarded, and the cells were collected and stored in a refrigerator at −80° C. The cells were resuspended with D1 Binding Buffer (pH 7.4) when tested.
# Inhibition rate of each compound of 10 umol/L to the binding of [^3H]8-OH-DPAT and the 5-HT1A receptor was determined by a general selection.
# [3] = single oral administration, Bliss method, read-out: LD50
SMILES,inhibition of high spontaneous activity of MK-801-induced rats [1],Total Distance within 61-150 minutes [1],Improvement Rate [1],Ki (Dopamine D2 receptor),Ki (Dopamine D3 receptor),Ki (5-HT1A receptor),further results
"CN(C)C(=O)N[C@H]1CC[C@H](CCN2CCN(c3cccc(Cl)c3Cl)CC2)CC1 [Cariprazine, reference compound]",significantly inhibited,168.25 ± 26.9 m,45.69%,,,,total distances of the rats within 150 minutes compared with MK-801 model control ([1]; 0.3 mg/kg): decreased; LD50 at 6 days ([2]; po): 75.3 mg/kg
"CN(C)C(=O)N[C@H]1CC[C@H](CCN2CCN(c3cccc4sccc34)CC2)CC1 [Compound 1, N′-[trans-4-[2-[4-(benzo[b]thiophene)-7-piperazinyl]ethyl]cyclohexyl]-N,N-dimethylurea]",significantly inhibit,73.09 ± 11.7 m,76.41%,,,,
"CN(C)C(=O)N[C@H]1CC[C@H](CCN2CCN(c3cccc4ccsc34)CC2)CC1 [Compound 2, N′-[trans-4-[2-[7-(benzo[b]thiophene)-7-piperazinyl]ethyl]cyclohexyl]-N,N-dimethylurea]",significantly inhibit,46.95 ± 10.3 m,84.84%,,,,
"CN(C)C(=O)N[C@H]1CC[C@H](CCN2CCN(c3cccc4cscc34)CC2)CC1 [Compound 3, N′-[trans-4-[2-[4-(benzo[c]thiophene)-7-piperazinyl]ethyl]cyclohexyl]-N,N-dimethylurea]",significantly inhibit,63.79 ± 10.8 m,79.41%,,,,
"CN(C)C(=O)N[C@H]1CC[C@H](CCN2CCN(c3nsc4ccccc34)CC2)CC1 [Compound 4, N′-[trans-4-[2-[4-(benzo[d]isothiazolyl)-3-piperazinyl]ethyl]cyclohexyl]-N,N-dimethylurea]",,232.18 ± 20.3 m,25.05%,,,,
"CN(C)C(=O)N[C@H]1CC[C@H](CCN2CCN(c3noc4cc(F)ccc34)CC2)CC1 [Compound 5, N′-[trans-4-[2-[4-(6-fluoro-benzo[d]isoxazol)-3-piperazinyl]ethyl]cyclohexyl]-N,N-dimethylurea]",significantly inhibit,5.43 ± 1.7 m,98.25%,,,,
"CN(C)C(=O)N[C@H]1CC[C@H](CCN2CCN(c3ccc4c(Cl)noc4c3)CC2)CC1 [Compound 6, N′-[trans-4-[2-[4-(3-chloro-benzo[d]isoxazol)-6-piperazinyl]ethyl]cyclohexyl]-N,N-dimethylurea]",significantly inhibited,171.78 ± 13.0 m,12.27%,,,,
"CN(C)C(=O)N[C@H]1CC[C@H](CCN2CCC(c3noc4cc(F)ccc34)CC2)CC1 [Compound 7, N′-[trans-4-[2-[4-(6-fluoro-benzo[d]isoxazol)-3-piperidyl]ethyl]cyclohexyl]-N,N-dimethylurea]",significantly inhibited,160.82 ± 12.91 m,48.09%,,,,
"Cc1ccc2c(N3CCN(CC[C@H]4CC[C@H](NC(=O)N(C)C)CC4)CC3)noc2c1 [Compound 14, N′-[trans-4-[2-[4-(6-methyl-benzo[d]isoxazol)-4-piperazinyl]ethyl]cyclohexyl]-N,N-dimethylurea]",significantly inhibited,150.28 ± 11.70 m,51.49%,,,,
CN(C)C(=O)N[C@H]1CC[C@H](CCN2CCN(c3cccc4ccsc34)CC2)CC1 [drawing 29],,,,> 1000 nM,0.06 nM,3.85 nM,
CN(C)C(=O)N[C@H]1CC[C@H](CCN2CCN(c3cccc4cscc34)CC2)CC1 [drawing 30],,,,978 nM,0.07 nM,3.72 nM,
CN(C)C(=O)N[C@H]1CC[C@H](CCN2CCN(c3cccc4sccc34)CC2)CC1 [drawing 31],,,,> 1000 nM,0.06 nM,3.96 nM,
CN(C)C(=O)N[C@H]1CC[C@H](CCN2CCN(c3noc4cc(F)ccc34)CC2)CC1 [drawing 32],,,,1.3 nM,0.29 nM,4.12 nM,
CN(C)C(=O)N[C@H]1CC[C@H](CCN2CCN(c3ccc4c(Cl)noc4c3)CC2)CC1 [drawing 33],,,,251 nM,0.57 nM,22.8 nM,
CN(C)C(=O)N[C@H]1CC[C@H](CCN2CCC(c3noc4cc(F)ccc34)CC2)CC1 [drawing 34],,,,> 1000 nM,0.15 nM,3.65 nM,
CN(C)C(=O)N[C@H]1CC[C@H](CCN2CCN(c3cccc4ccsc34)CC2)CC1 [drawing 35],,,,,,,"LD50 at 6 days [2, 3]: 1100 mg/kg"
CN(C)C(=O)N[C@H]1CC[C@H](CCN2CCN(c3cccc4cscc34)CC2)CC1 [drawing 36],,,,,,,"LD50 at 6 days [2, 3]: 1050 mg/kg"
CN(C)C(=O)N[C@H]1CC[C@H](CCN2CCN(c3cccc4sccc34)CC2)CC1 [drawing 37],,,,,,,"LD50 at 6 days [2, 3]: 1080 mg/kg"
